PubChem BioAssay AID1322 (NMMLSC, 2008)
Active and inactive are the calls of the source. No rule for the calls is given here.

Target: Bcl-2-like protein 1 (Homo sapiens) (UniProt Q07817)
Assay: Bcl-XL binding to Bim peptide disruption – biochemical, multiplexed, bead flow cytometry, human Bcl-XL, dose response (AID 1322); as to inhibition: test concentration not given here
Conditions: Bead-based flow cytometry, MCF; for inhibition: stronger effect = higher value

Sequence of Bcl-2-like protein 1 (Homo sapiens) (Q07817 whole entry, looked up): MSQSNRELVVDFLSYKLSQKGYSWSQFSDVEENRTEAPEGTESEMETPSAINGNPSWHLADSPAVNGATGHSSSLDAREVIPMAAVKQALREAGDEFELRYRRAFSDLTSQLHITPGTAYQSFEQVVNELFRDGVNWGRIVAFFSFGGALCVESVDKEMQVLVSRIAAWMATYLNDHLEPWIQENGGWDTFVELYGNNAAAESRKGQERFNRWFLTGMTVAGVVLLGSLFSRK

| Compound | inhibition | outcome |
| --- | --- | --- |
| CCN1CCN(c2ccc(NC(=O)c3ccc4c(c3)[nH]c(=O)n4Cc3ccc(OC)cc3)cc2)CC1 | inactive |  |
| Cc1ccc(NC(=O)c2cc(S(=O)(=O)NCCC3=CCCCC3)ccc2F)cc1F |  | inactive |
| CCCn1c(SCC(=O)Nc2ccccc2-c2ccccc2)nnc1-c1ccoc1C | inactive |  |
| O=C(/C=C/c1c(F)cccc1Cl)Nc1ccncc1 | inactive |  |
| Cc1sc2nc(C(C)C)nc(SCC(=O)N3c4ccccc4CC3C)c2c1C (centres undefined) | inactive |  |
| O=C(O)C1=C[C@H](C2CC2)C[C@H](OCCCCO)O1 | inactive |  |
| COc1ccc(OC)c(NC(=O)COC(=O)c2cc3c(s2)CCC3)c1 | inactive |  |
| CCOC(=O)c1sc(NC(=O)c2ccncc2)c(C#N)c1C | inactive |  |
| Clc1nssc1=Nc1ccc(Br)cc1 |  | inactive |
| CCN(CC)c1ccc(NC2=C(Cl)C(=O)c3ccccc3C2=O)cc1 |  | inactive |
| CCOc1cc(/C=N/NC(N)=O)ccc1OCC(=O)Nc1ccc(C)c(C)c1 | inactive |  |
| CC1=CC(=O)c2ccccc2C1=O | inactive |  |
| C=CCN1C(=O)/C(=C/c2ccsc2)SC1=S |  | inactive |
| O=C(N/N=C/c1ccc(O)c(O)c1O)/C(=C/c1ccc([N+](=O)[O-])cc1)NC(=O)c1ccccc1 | inactive |  |
| COc1ccc(NC(=O)Cc2c(F)cccc2Cl)c(OC)c1 | inactive |  |
| NC(=O)c1c(NC(=O)C2CCCO2)sc2c1CCCC2 (centres undefined) | inactive |  |
| Cc1cc(-c2cc(-c3ccc(Cl)cc3)nc(N)c2C#N)co1 | inactive |  |
| Cc1[nH]nc(SCC(=O)NCc2ccc(F)cc2)c1[N+](=O)[O-] | inactive |  |
| S=C(Nc1ccccc1)N1CCn2cccc2C1c1cccnc1 (centres undefined) | inactive |  |
| Cc1ccc(-c2cc(C(=O)Nc3nccs3)c3ccccc3n2)o1 | inactive |  |
| CCOC(=O)C1CCCN(c2ncnc3c2cnn3-c2cccc(C)c2)C1 (centres undefined) | inactive |  |
| Nc1ccc(Nc2nc(-c3ccncc3)cs2)cc1 | inactive |  |
| Nc1ccc(N2CCCCCC2)cc1 | inactive |  |
| Cc1cc(Cl)ccc1N=c1ssnc1Cl | inactive |  |
| CCOC(=O)C1=C(Cc2ccc(C)cc2)C(=O)c2ccccc2C1=O | inactive |  |
| CC(=O)Nc1ccc2nc(CN3CCN(CC(C)C)C(CCO)C3)ccc2c1 (centres undefined) |  | inactive |

| Compound | inhibition | outcome |
| --- | --- | --- |
| CCOC(=O)CSc1nnc(-c2cccc(Cl)c2)n1CC | inactive |  |
| CCN1CCN(c2cc(C)c3cc(NC(=S)N4CCN(c5ccccc5)CC4)ccc3n2)CC1 | inactive |  |
| CCSc1nnc(NC(=O)c2c(-c3ccccc3Cl)noc2C)s1 | inactive |  |
| Cc1ccc(/C=C/C(=O)c2ccccc(=O)c2O)c(C)c1 | inactive |  |
| O=C(Cn1c2ccccc2c(=O)c2ccccc21)N/N=C/c1ccc(N2CCCC2)c([N+](=O)[O-])c1 | inactive |  |
| Cc1ccc(NS(=O)(=O)c2cc(NC(=O)c3ccc4c(c3)NC(=O)CS4)ccc2C)c(C)c1 | inactive |  |
| CN1CCN(c2ccccc2N)CC1 | inactive |  |
| Cn1c(=O)c(C(=O)COC(=O)c2cc(-c3ccco3)nc3ccccc23)c(N)n(CC2CC2)c1=O | inactive |  |
| CCCCCCn1nc(C(=O)Nc2nc3c(s2)CCCC3)c2ccccc2c1=O | inactive |  |
| c1ccc(-c2nc(N3CCCCC3)nc3ccccc23)cc1 | inactive |  |
| Cc1nnc(Sc2cc(NCCO)c([N+](=O)[O-])c3nonc23)s1 | inactive |  |
| Cc1ccc(-c2cc(-c3ccc4c(c3)OCO4)c(C#N)c(N)n2)o1 | inactive |  |
| Cc1ccc(NN2C(=O)C=CC2=O)cc1 |  | inactive |
| O=C(O)c1cccc(NC2=C(Cl)C(=O)c3ccccc3C2=O)c1 |  | inactive |
| COc1ccc(S(=O)(=O)NCCSc2ccccc2)cc1OC | inactive |  |
| CC1=CC(=O)c2c(O)ccc(O)c2C1=O | inactive |  |
| COc1ccc(C2(NC(C)=O)CCN(C(=O)c3ccco3)CC2)cc1 | inactive |  |
| O=C(Nc1nnc(COc2ccc(Cl)cc2)s1)c1ccco1 | inactive |  |
| CCOc1ccc2nc(SCC(=O)N3c4ccccc4Sc4ccccc43)c(C#N)cc2c1 | inactive |  |
| COc1ccc(OC)c(Nc2ccc(C(=O)O)cc2[N+](=O)[O-])c1 |  | inactive |
| Cc1cc(C)cc(NS(=O)(=O)c2ccc3c(c2)c(=O)n(C)c(=O)n3C)c1 | inactive |  |
| COc1cccc(/C=C2/SC(=O)N(C)C2=O)c1OCc1ccc(C(=O)O)cc1 | inactive |  |
| Cc1cccc(-c2nnc3n2N=C(c2ccccc2)CS3)c1 | inactive |  |
| Cc1ccccc1/C=N/Nc1ccnc2cc(Cl)ccc12 | inactive |  |
| CCN1/C(=C/c2ccc3cc(C)ccc3[n+]2CC)Sc2cc(C)c(C)cc21 | inactive |  |
| O=C1C(=O)c2ccc(-c3ccccc3)cc2-c2ccccc21 | inactive |  |

| Compound | inhibition | outcome |
| --- | --- | --- |
| CN(C)[C@@H]1C(=O)C(C(=O)NCN2CCCC2)=C(O)[C@@]2(O)C(=O)C3=C(O)c4c(O)cccc4[C@@](C)(O)C3CC12 (some centres undefined) | inactive |  |
| COC(=O)/C(=C/c1ccc(F)cc1)NC(C)=O | inactive |  |
| COc1ccc(-c2nnc(SCC(=O)Nc3nc4ccccc4s3)n2C)cc1 | inactive |  |
| CCOc1ccc(CNc2ccc(N3CCCC3)cc2)cc1 | inactive |  |
| O=C(NCCc1ccccc1)c1ccc2nc(-c3ccco3)c(-c3ccco3)nc2c1 | inactive |  |
| CCN(CC)S(=O)(=O)c1cccc(C(=O)N/N=C/c2ccc(O)c(O)c2O)c1 | inactive |  |
| O=C(Cn1c(-c2ccccc2)noc1=O)N1CCC(Cc2ccccc2)CC1 |  | inactive |
| CC(C(=O)Nc1cc([N+](=O)[O-])ccc1Cl)N1CCN(c2ccc(O)cc2)CC1 (centres undefined) |  | inactive |
| O=C(Oc1ccc(-c2cnc3ccccc3n2)cc1)c1cccc([N+](=O)[O-])c1 | inactive |  |
| COc1cc(N=c2ssnc2Cl)cc(OC)c1 | inactive |  |
| Cc1csc(SCCn2c(N3CCN(c4ccccc4)CC3)nc3c2c(=O)[nH]c(=O)n3C)n1 | inactive |  |
| O=C(C1=NN[C@@H]2C(=O)N(c3ccccc3C(F)(F)F)C(=O)[C@H]12)c1ccc2ccccc2n1 |  | inactive |
| CNC(CC(=O)c1ccc([N+](=O)[O-])cc1)C(Cl)(Cl)Cl (centres undefined) |  | inactive |
| COc1cccc(/C=N/NC(=O)c2cc3cc([N+](=O)[O-])ccc3s2)c1O | inactive |  |
| Cc1ccc(N=C2NC(=O)/C(=C/C=C/c3ccco3)S2)cc1 | inactive |  |
| CCN1/C(=C/c2ccc3cc(C)cc(C)c3[n+]2CC)Sc2cc(C)ccc21 | inactive |  |
| COc1ccc(OC)c2sc(NC(=O)c3ccc(Br)s3)nc12 | inactive |  |
| COC(=O)Cc1ccc(NC(=S)N2CCN(c3cccc(O)c3)CC2)cc1 | inactive |  |
| COc1cc(/C=C2/NC(=O)N(Cc3ccccc3F)C2=O)ccc1O |  | inactive |
| CC(C)(C)NC(=O)COc1ccc(CNc2ccc3[nH]c(=O)[nH]c3c2)cc1 | inactive |  |
| O=C(Nc1ccc2nc(-c3ccco3)c(-c3ccco3)nc2c1)N1CCN(c2ccccn2)CC1 | inactive |  |
| COc1cccc2c1C(=O)C=C(C)C2=O | inactive |  |
| CN(C)C(=O)N1CCC(C(=O)NC2CCCCCCC2)CC1 | inactive |  |
| COC(=O)CSc1ncnc2c1sc1nc(-c3ccco3)c3c(c12)CC(C)(C)OC3 | inactive |  |
| O=C(c1cnccn1)N1CCN(c2ccccc2F)CC1 | inactive |  |
| Nc1ccc(N2CCN(CCCCN3C(=O)C4CCCN4C3=O)CC2)cc1 (centres undefined) | inactive |  |

| Compound | inhibition | outcome |
| --- | --- | --- |
| CCOc1ccc(C2=Nn3c(nnc3-c3ccco3)SC2)cc1 | inactive |  |
| CCOc1cc(S(=O)(=O)N2CCCCC2)ccc1F | inactive |  |
| Clc1ccc2c(N/N=C/c3cccc(Br)c3)ccnc2c1 | inactive |  |
| CC(C)(C)C(=O)NC(NC(=S)Nc1ccc(S(N)(=O)=O)cc1)C(Cl)(Cl)Cl (centres undefined) | inactive |  |
| COc1cc(/C=C2/NC(=O)N(Cc3ccccc3F)C2=O)cc(OC)c1O | inactive |  |
| Cn1c(=O)c(C(=O)COC(=O)c2cc(-c3ccco3)nc3ccccc23)c(N)n(Cc2ccccc2)c1=O | inactive |  |
| O=C(/C=C/c1ccc(-c2ccccc2[N+](=O)[O-])o1)c1ccccc1 | inactive |  |
| COc1ccc(NC(=O)c2c(F)cccc2F)cc1S(=O)(=O)Nc1ccc(Br)cc1 | inactive |  |
| CCc1cccc(CC)c1NC(=S)N1CCn2cccc2C1c1cccnc1 (centres undefined) |  | inactive |
| CCc1nnc(NC(=O)CSc2nnc(COc3ccc(C)cc3)n2-c2ccccc2)s1 | inactive |  |
| COc1ccc2nc(NC(=O)c3ccc(-c4cccc([N+](=O)[O-])c4)o3)sc2c1 | inactive |  |
| Cc1ccc(C(=O)C(C(=O)/C=C/c2ccccc2)=C2SCCCS2)cc1 | inactive |  |
| CCOc1ccccc1C(=O)NC1CC2CCCC(C1)N2C1CC1 (centres undefined) | inactive |  |
| O=C(NCCN1CCOCC1)c1cc(Cl)ccc1[N+](=O)[O-] | inactive |  |
| Cc1ccc(C(=O)N/N=C2/NC(=O)CC(C(=O)Nc3ccccc3)S2)cc1 (centres undefined) | inactive |  |
| Cc1ccc(-c2cc(C(=O)OCC(=O)N(C)C3CCS(=O)(=O)C3)c3ccccc3n2)o1 (centres undefined) | inactive |  |
| C/C(=N\NC(=O)COc1ccc(C(C)(C)C)cc1)c1ccc2c(c1)OCCO2 | inactive |  |
| Cc1ccc(S(=O)(=O)N(C)CC(=O)N2CCc3ccccc32)cc1 | inactive |  |
| COc1ccc(NC(=O)c2sccc2SCc2cccc(C(F)(F)F)c2)cc1 | inactive |  |
| CN(C)c1ncc(C2=C(Cl)C(=O)C(N3CCCC3)=C(Cl)C2=O)s1 | inactive |  |
| Cn1cccc1CC(=O)N/N=C\c1ccccc1 |  | inactive |
| COC(=O)c1[nH]c2ccccc2c1NC(=O)c1ccccc1[N+](=O)[O-] |  | inactive |
| COc1c(C)cc(Br)cc1C(=O)Nc1ccc(S(N)(=O)=O)cc1 |  | inactive |
| COc1ccccc1NC(=O)CSc1ncn(-c2ccccc2)n1 | inactive |  |
| O=C(Nc1ccc2nc(-c3ccco3)c(-c3ccco3)nc2c1)N1CCCCCC1 | inactive |  |
| CCOC(=O)c1[nH]cnc1C(=O)NC(C)C | inactive |  |
